Results from the supplement of paper PMC4862054.

What was measured:
Conditions in all cases: incubation time: 72 h
MDA-MB-436 [1] = assay: normalised response (% of control), CellTiter-Glo; higher = more viable cells (100 = DMSO, 0 = benzethonium chloride kill control)
Method: (§1)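 DSRT, 72 h incubation, CellTox Green / CellTiter-Glo readout. Signal is normalised to DMSO and benzethonium chloride controls. Value is the normalised response at the highest dose.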

CAL-85-1 [2] = assay: as above
Method: as §1

MDA-MB-231 [3] = assay: as above
Method: as §1

MFM-223 [4] = assay: as above
Method: as §1

CAL-148 [5] = assay: as above
Method: as §1

HCC1599 [6] = assay: as above
Method: as §1

HCC1937 [7] = assay: as above
Method: as §1

MDA-MB-468 [8] = assay: as above
Method: as §1

HDQ-P1 [9] = assay: as above
Method: as §1

HCC1143 [10] = assay: as above
Method: as §1

CAL-120 [11] = assay: as above
Method: as §1

CAL-51 [12] = assay: as above
Method: as §1

DU-4475 [13] = assay: as above
Method: as §1

BT-474 [14] = assay: as above
Method: as §1

Hs578T [15] = assay: as above
Method: as §1

MCF-10A [16] = assay: as above
Method: as §1

SK-BR-3 = assay: as above
Method: as §1

BT-549 [17] = assay: as above
Method: as §1

MDA-MB-453 [18] = assay: as above
Method: as §1

MDA-MB-436 [19] = assay: normalised response (% of control), CellTox Green; higher = less cell death (100 = DMSO, 0 = benzethonium chloride kill control)
Method in brief: (§2)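 Plates were normalised with 0.1 % DMSO as 100 and a positive kill control as 0. Breast cancer cell lines in 20 µl suspension had been seeded into 384-well plates with compound at 5 concentrations in 10-fold steps over a compound-specific 10,000-fold range, incubated 72 h, and read for CellTox Green fluorescence (485/520 nm) followed by CellTiter-Glo luminescence. Each value is the normalised signal at a single concentration.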

CAL-85-1 [20] = assay: as above
Method in brief: as §2

MDA-MB-231 [21] = assay: as above
Method in brief: as §2

MFM-223 [22] = assay: as above
Method in brief: as §2

CAL-148 [23] = assay: as above
Method in brief: as §2

HCC1599 [24] = assay: as above
Method in brief: as §2

HCC1937 [25] = assay: as above
Method in brief: as §2

MDA-MB-468 [26] = assay: as above
Method in brief: as §2

HDQ-P1 [27] = assay: as above
Method in brief: as §2

HCC1143 [28] = assay: as above
Method in brief: as §2

CAL-120 [29] = assay: as above
Method in brief: as §2

CAL-51 [30] = assay: as above
Method in brief: as §2

DU-4475 [31] = assay: as above
Method in brief: as §2

BT-474 [32] = assay: as above
Method in brief: as §2

Hs578T [33] = assay: as above
Method in brief: as §2

MCF-10A [34] = assay: as above
Method in brief: as §2

BT-549 [35] = assay: as above
Method in brief: as §2

MDA-MB-453 [36] = assay: as above
Method in brief: as §2

Row | Compound | normalised response (MDA-MB-436 [1]) | normalised response (CAL-85-1 [2]) | normalised response (MDA-MB-231 [3]) | normalised response (MFM-223 [4]) | normalised response (CAL-148 [5]) | normalised response (HCC1599 [6]) | normalised response (HCC1937 [7]) | normalised response (MDA-MB-468 [8]) | normalised response (HDQ-P1 [9]) | normalised response (HCC1143 [10]) | normalised response (CAL-120 [11]) | normalised response (CAL-51 [12]) | normalised response (DU-4475 [13]) | normalised response (BT-474 [14]) | normalised response (Hs578T [15]) | normalised response (MCF-10A [16]) | normalised response (SK-BR-3) | normalised response (BT-549 [17]) | normalised response (MDA-MB-453 [18]) | normalised response (MDA-MB-436 [19]) | normalised response (CAL-85-1 [20]) | normalised response (MDA-MB-231 [21]) | normalised response (MFM-223 [22]) | normalised response (CAL-148 [23]) | normalised response (HCC1599 [24]) | normalised response (HCC1937 [25]) | normalised response (MDA-MB-468 [26]) | normalised response (HDQ-P1 [27]) | normalised response (HCC1143 [28]) | normalised response (CAL-120 [29]) | normalised response (CAL-51 [30]) | normalised response (DU-4475 [31]) | normalised response (BT-474 [32]) | normalised response (Hs578T [33]) | normalised response (MCF-10A [34]) | normalised response (BT-549 [35]) | normalised response (MDA-MB-453 [36])
1 | Nc1cc(C(F)(F)F)c(-c2cc(N3CCOCC3)nc(N3CCOCC3)n2)cn1 [Buparlisib] (10000 nM) | 65.4% | 83.3% | 48% | 47.8% | 79.9% | 94.3% | 36.2% | 11.3% | 46.9% | 57.4% | 56.3% | 1.1% | 80.2% | 15.8% | 75% | 36% | 81.5% | 3.53% | 75.6% | 75.9% | 104% | 29.4% | 81.7% | 70% | 93.4% | 50.4% | 111% | 85.7% | 68.6% | 92.1% | -15.4% | 95.8% | 24% | 18% | 79.4% | 33.8% | 97.9%
2 | COc1cc(O)c2c(c1)/C=C/C[C@H](O)[C@H](O)C(=O)/C=C\C[C@H](C)OC2=O [(5Z)-7-Oxozeaenol] (10000 nM) | 25.1% | 13.9% | 4.8% | 25.6% | 26.9% | 32.7% | 32.5% | 21.4% | 20.5% | 39.9% | 41.3% | 3.02% | 4.88% | 14% | 9.82% | 34.5% | 23.5% | 4.83% | 38.5% | 102% | 27.7% | 28.4% | 67.3% | 56.2% | 97.8% | -41.8% | 51.8% | 87.9% | 135% | 83.6% | 45.5% | 57.9% | 54.5% | 49.4% | 64.3% | 79.2% | 85.9%
3 | COc1cc2c(NC3CCN(C(C)C)CC3)nc(N3CCC(F)(F)CC3)nc2cc1OCCCN1CCCC1 [UNC0642] (10000 nM) | 19.1% | 5.34% | 18.8% | 32.9% | 32.4% | 94.2% | 56.7% | 3.41% | 48.9% | 70.4% | 60.9% | 79% | 76.3% | 33.3% | 91.6% | 40.9% | 29.6% | 56.3% | 5.97% | 44% | -18.1% | -38.7% | 81.9% | 44.5% | 87.4% | 29.2% | -31.3% | 93.1% | 76.4% | 19.6% | 113% | 95.5% | -7.97% | 122% | 57% | 104% | 43.1%
4 | CNC(=O)c1cccc(-c2ccc3c(N4CCOC[C@@H]4C)nc(N4CCOC[C@@H]4C)nc3n2)c1 [AZD2014] (10000 nM) | 54.4% | 27.3% | 46.2% | 33.6% | 15.3% | 65.3% | 42.3% | 25.6% | 34.1% | 25.4% | 23.6% | 20.6% | 23.8% | 49.6% | 27.4% | 33.9% | 20% | 19.9% | 33% | 95% | 77.8% | 107% | 93.4% | 58.9% | 95% | 108% | 136% | 104% | 110% | 106% | 90.1% | 86.3% | 96.4% | 129% | 96% | 74.9% | 95.2%
5 | CCn1c(-c2nonc2N)nc2cnc(Oc3cccc(NC(=O)c4ccc(OCCN5CCOCC5)cc4)c3)cc21 (10000 nM) | 73.3% | 87.8% | 64.4% | 62.1% | 69.9% | 74.6% | 76.6% | 50.7% | 75.9% | 76.4% | 58.5% | 32.8% | 80% | 66% | 49% | 62.9% | 40.9% | 41.4% | 72.2% | 74.1% | 109% | 52.4% | 93.6% | -66.5% | 97.9% | 78.5% | 74.3% | 109% | -33.8% | 103% | 43.7% | 97.6% | 98% | 110% | 93.4% | 100% | 108%
6 | S=P(N1CC1)(N1CC1)N1CC1 [Thio-TEPA] (50000 nM) | 104% | 93.7% | 94.8% | 101% | 98.1% | 111% | 93% | 96.9% | 99.7% | 95.6% | 97.2% | 63.8% | 100% | 91.7% | 103% | 104% | 101% | 77.2% | 111% | 103% | 93.8% | 113% | 77.7% | 89.4% | 97.7% | 73.4% | 119% | 97.6% |  | 99% | 48.1% | 97.7% | 101% |  | 97.2% | 93.5% | 103%
7 | COC(=O)c1ccc2c(c1)NC(=O)/C2=C(\Nc1ccc(N(C)C(=O)CN2CCN(C)CC2)cc1)c1ccccc1 [Nintedanib] (10000 nM) | 17.1% | 87.7% | 1.73% | 50.6% | 90.8% | 84% | 27.6% | 4.97% | 40.1% | 48% | 52.1% | 2.78% | 84.8% | 3.88% | 82.3% | 40.1% | 71% | 0.72% | 73.4% | 42.1% | 85.3% | -69.5% | 92.7% | 79.6% | 99.9% | 14.2% | 15.6% | 61.2% | 87.2% | 77.8% | -13% | 96.7% | -15.7% | 104% | 31.4% | 27.7% | 99.7%
8 | CNC(=O)c1ccc(N2C(=S)N(c3ccc(C#N)c(C(F)(F)F)c3)C(=O)C2(C)C)cc1F [Enzalutamide] (10000 nM) | 97.2% | 91.7% | 90.2% | 89.3% | 96.1% | 102% | 92.7% | 93.7% | 86.5% | 96.6% | 97.5% | 80.3% | 92.6% | 94.3% | 105% | 93.4% | 99% | 100% | 88.5% | 96.1% | 85% | 107% | 106% | 103% | 96.7% | 55.2% | 87.5% | 112% | 117% | 104% | 108% | 98.2% | 101% | 112% | 111% | 70.1% | 95.5%
9 | CNC(=O)c1ccc(N2C(=S)N(c3ccc(C#N)c(C(F)(F)F)c3)C(=O)C23CCC3)cc1F [RD162] (10000 nM) | 92.6% | 91.5% | 85.1% | 89.5% | 105% | 106% | 93.8% | 93.3% | 92.3% | 95% | 101% | 95.3% | 95.5% | 89.8% | 101% | 102% | 95.3% | 96.3% | 91.8% | 95.4% | 91.2% | 99.8% | 50.8% | 97.4% | 97.1% | 90.6% | 89.8% | 106% |  | 101% | 109% | 98.4% | 103% | 110% | 111% | 84.9% | 96.3%
